From US20220177508A1, “C10-Cyclic Substituted 13-Membered Macrolides and Uses Thereof” (Zikani Therapeutics, Inc., priority 2018, published 2022)
Converted amounts (≈) assume the structure as drawn.

Legend:
Format in all cases: cell-based
S. aureus MP-12 = test: Broth dilution MIC determination (CLSI), S. aureus MP-12; conditions: Staphylococcus aureus, MP12; strain MP-12, broth dilution
E. coli MP-4 = test: Broth dilution MIC determination (CLSI), E. coli MP-4; conditions: Escherichia coli, MP4; strain MP-4, broth dilution; read-out: MIC E. coli MP-4
K. pneumoniae MP-546 = test: Broth dilution MIC determination (CLSI), K. pneumoniae MP-546; conditions: Klebsiella pneumoniae, MP546; strain MP-546, broth dilution
P. aeruginosa MP-3 = test: Broth dilution MIC determination (CLSI), P. aeruginosa MP-3; conditions: Pseudomonas aeruginosa, MP3; strain MP-3, broth dilution
A. baumannii MP-15 = test: Broth dilution MIC determination (CLSI), A. baumannii MP-15; conditions: Acinetobacter baumannii, MP15; strain MP-15, broth dilution; read-out: MIC A. baumanii MP-15

SMILES	MIC (S. aureus MP-12) [µg/mL]	MIC (E. coli MP-4) [µg/mL]	MIC (K. pneumoniae MP-546) [µg/mL]	MIC (P. aeruginosa MP-3) [µg/mL]	MIC (A. baumannii MP-15) [µg/mL]
CN[C@H]1CC[C@H]([C@H]2COC(=O)C(C)(C)C(=O)[C@H](C)[C@@H](O[C@@H]3O[C@H](C)C[C@H](N(C)C)[C@H]3O)[C@](C)(OC)C[C@@H](C)CN2C)CC1 [Compound 26, (3S,6R,8R,9R,10R)-9-(((2S,3R,4S,6R)-4-(dimethylamino)-3-hydroxy-6-methyltetrahydro-2H-pyran-2-yl)oxy)-8-methoxy-4,6,8,10,12,12-hexamethyl-3-((1r,4S)-4-(methylamino)cyclohexyl)-1-oxa-4-azacyclotridecane-11,13-dione]	> 32	4 to 32 (≈ 6.54 to 52.3 µM)	> 32	> 32	> 32
CO[C@]1(C)C[C@@H](C)CN(CC(C)C)[C@H](C2CN(C(=O)CN(C)C)C2)COC(=O)C(C)(C)C(=O)[C@H](C)[C@H]1O[C@@H]1O[C@H](C)C[C@H](N(C)C)[C@H]1O [Compound 27, (3R,6R,8R,9R,10R)-9-(((2S,3R,4S,6R)-4-(dimethylamino)-3-hydroxy-6-methyltetrahydro-2H-pyran-2-yl)oxy)-3-(1-(dimethylglycyl)azetidin-3-yl)-4-isobutyl-8-methoxy-6,8,10,12,12-pentamethyl-1-oxa-4-azacyclotridecane-11,13-dione]	> 32	> 32	> 32	> 32	> 32
CO[C@]1(C)C[C@@H](C)CN(C)[C@H](C2CN(C(=O)CN(C)C)C2)COC(=O)C(C)(C)C(=O)[C@H](C)[C@H]1O[C@@H]1O[C@H](C)C[C@H](N(C)C)[C@H]1O [Compound 28, (3R,6R,8R,9R,10R)-9-(((2S,3R,4S,6R)-4-(dimethylamino)-3-hydroxy-6-methyltetrahydro-2H-pyran-2-yl)oxy)-3-(1-(dimethylglycyl)azetidin-3-yl)-8-methoxy-4,6,8,10,12,12-hexamethyl-1-oxa-4-azacyclotridecane-11,13-dione]	4 to 32 (≈ 6.24 to 49.9 µM)	< 4	< 4	> 32	> 32
CO[C@]1(C)C[C@@H](C)CN(C)[C@H](C2CN(CC(=O)NC(C)C)C2)COC(=O)C(C)(C)C(=O)[C@H](C)[C@H]1O[C@@H]1O[C@H](C)C[C@H](N(C)C)[C@H]1O [Compound 36, 2-(3-((3R,6R,8R,9R,10R)-9-(((2S,3R,4S,6R)-4-(dimethylamino)-3-hydroxy-6-methyltetrahydro-2H-pyran-2-yl)oxy)-8-methoxy-4,6,8,10,12,12-hexamethyl-11,13-dioxo-1-oxa-4-azacyclotridecan-3-yl)azetidin-1-yl)-N-isopropylacetamide]	> 32	4 to 32 (≈ 6.11 to 48.9 µM)	4 to 32 (≈ 6.11 to 48.9 µM)	> 32	> 32
CCN1C[C@H](C)C[C@@](C)(OC)[C@H](O[C@@H]2O[C@H](C)C[C@H](N(C)C)[C@H]2O)[C@@H](C)C(=O)C(C)(C)C(=O)OC[C@H]1C1CN(C(=O)CN(C)C)C1 [Compound 38, (3R,6R,8R,9R,10R)-9-(((2S,3R,4S,6R)-4-(dimethylamino)-3-hydroxy-6-methyltetrahydro-2H-pyran-2-yl)oxy)-3-(1-(dimethylglycyl)azetidin-3-yl)-4-ethyl-8-methoxy-6,8,10,12,12-pentamethyl-1-oxa-4-azacyclotridecane-11,13-dione]	4 to 32 (≈ 6.11 to 48.9 µM)	< 4	4 to 32 (≈ 6.11 to 48.9 µM)	> 32	> 32
CO[C@]1(C)C[C@@H](C)CN(C)[C@H](c2ccccc2)COC(=O)C(C)(C)C(=O)[C@H](C)[C@H]1O[C@@H]1O[C@H](C)C[C@H](N(C)C)[C@H]1O [Compound 42, (3R,6R,8R,9R,10R)-9-(((2S,3R,4S,6R)-4-(Dimethylamino)-3-hydroxy-6-methyltetrahydro-2H-pyran-2-yl)oxy)-8-methoxy-4,6,8,10,12,12-hexamethyl-3-phenyl-1-oxa-4-azacyclotridecane-11,13-dione]	> 32	4 to 32 (≈ 6.94 to 55.5 µM)	> 32	> 32	> 32

Next, values leading:

MIC (S. aureus MP-12) [µg/mL]	MIC (E. coli MP-4) [µg/mL]	MIC (K. pneumoniae MP-546) [µg/mL]	MIC (P. aeruginosa MP-3) [µg/mL]	MIC (A. baumannii MP-15) [µg/mL]	SMILES
> 32	> 32	> 32	> 32	> 32	CO[C@]1(C)C[C@@H](C)CN(CC(C)C)[C@H](C2CN(CC(C)C)C2)COC(=O)C(C)(C)C(=O)[C@H](C)[C@H]1O[C@@H]1O[C@H](C)C[C@H](N(C)C)[C@H]1O [Compound 21, (3R,6R,8R,9R,10R)-9-(((2S,3R,4S,6R)-4-(dimethylamino)-3-hydroxy-6-methyltetrahydro-2H-pyran-2-yl)oxy)-4-isobutyl-3-(1-isobutylazetidin-3-yl)-8-methoxy-6,8,10,12,12-pentamethyl-1-oxa-4-azacyclotridecane-11,13-dione]
> 32	4 to 32 (≈ 6.69 to 53.5 µM)	4 to 32 (≈ 6.69 to 53.5 µM)	> 32	> 32	CO[C@]1(C)C[C@@H](C)CN(C)[C@@H]([C@@H]2CCCN(C)C2)COC(=O)C(C)(C)C(=O)[C@H](C)[C@H]1O[C@@H]1O[C@H](C)C[C@H](N(C)C)[C@H]1O [Compound 23, (3S,6R,8R,9R,10R)-9-(((2S,3R,4S,6R)-4-(dimethylamino)-3-hydroxy-6-methyltetrahydro-2H-pyran-2-yl)oxy)-8-methoxy-4,6,8,10,12,12-hexamethyl-3-((R)-1-methylpiperidin-3-yl)-1-oxa-4-azacyclotridecane-11,13-dione]
> 32	< 4	4 to 32 (≈ 6.69 to 53.5 µM)	> 32	> 32	CCCN1CC([C@H]2COC(=O)C(C)(C)C(=O)[C@H](C)[C@@H](O[C@@H]3O[C@H](C)C[C@H](N(C)C)[C@H]3O)[C@](C)(OC)C[C@@H](C)CN2C)C1 [Compound 29, (3S,6R,8R,9R,10R)-9-(((2S,3R,4S,6R)-4-(dimethylamino)-3-hydroxy-6-methyltetrahydro-2H-pyran-2-yl)oxy)-8-methoxy-4,6,8,10,12,12-hexamethyl-3-(1-propylazetidin-3-yl)-1-oxa-4-azacyclotridecane-11,13-dione]
> 32	4 to 32 (≈ 6.1 to 48.8 µM)	> 32	> 32	> 32	CO[C@]1(C)C[C@@H](C)CN(C)[C@H](c2ccc(Br)cc2)COC(=O)C(C)(C)C(=O)[C@H](C)[C@H]1O[C@@H]1O[C@H](C)C[C@H](N(C)C)[C@H]1O [Compound 33, (3R,6R,8R,9R,10R)-3-(4-bromophenyl)-9-(((2S,3R,4S,6R)-4-(dimethylamino)-3-hydroxy-6-methyltetrahydro-2H-pyran-2-yl)oxy)-8-methoxy-4,6,8,10,12,12-hexamethyl-1-oxa-4-azacyclotridecane-11,13-dione]
> 32	4 to 32 (≈ 5.98 to 47.8 µM)	> 32	> 32	> 32	CO[C@]1(C)C[C@@H](C)CN(C)[C@@H]([C@H]2CCCN(C(=O)CN(C)C)C2)COC(=O)C(C)(C)C(=O)[C@H](C)[C@H]1O[C@@H]1O[C@H](C)C[C@H](N(C)C)[C@H]1O [Compound 34, (3S,6R,8R,9R,10R)-9-(((2S,3R,4S,6R)-4-(dimethylamino)-3-hydroxy-6-methyltetrahydro-2H-pyran-2-yl)oxy)-3-((S)-1-(dimethylglycyl)piperidin-3-yl)-8-methoxy-4,6,8,10,12,12-hexamethyl-1-oxa-4-azacyclotridecane-11,13-dione]
> 32	< 4	4 to 32 (≈ 6.69 to 53.5 µM)	> 32	> 32	CO[C@]1(C)C[C@@H](C)CN(C)[C@H](C2CN(C(C)C)C2)COC(=O)C(C)(C)C(=O)[C@H](C)[C@H]1O[C@@H]1O[C@H](C)C[C@H](N(C)C)[C@H]1O [Compound 35, (3R,6R,8R,9R,10R)-9-(((2S,3R,4S,6R)-4-(dimethylamino)-3-hydroxy-6-methyltetrahydro-2H-pyran-2-yl)oxy)-3-(1-isopropylazetidin-3-yl)-8-methoxy-4,6,8,10,12,12-hexamethyl-1-oxa-4-azacyclotridecane-11,13-dione]
4 to 32 (≈ 6.25 to 50 µM)	4 to 32 (≈ 6.25 to 50 µM)	4 to 32 (≈ 6.25 to 50 µM)	> 32	> 32	CO[C@]1(C)C[C@@H](C)CN(C)[C@H]([C@H]2CCCN(CC(C)C)C2)COC(=O)C(C)(C)C(=O)[C@H](C)[C@H]1O[C@@H]1O[C@H](C)C[C@H](N(C)C)[C@H]1O [Compound 39, (3R,6R,8R,9R,10R)-9-(((2S,3R,4S,6R)-4-(Dimethylamino)-3-hydroxy-6-methyltetrahydro-2H-pyran-2-yl)oxy)-3-((S)-1-isobutylpiperidin-3-yl)-8-methoxy-4,6,8,10,12,12-hexamethyl-1-oxa-4-azacyclotridecane-11,13-dione]
4 to 32 (≈ 7.02 to 56.2 µM)	< 4	< 4	> 32	> 32	CO[C@]1(C)C[C@@H](C)CN(C)[C@@H]([C@H]2CCNC2)COC(=O)C(C)(C)C(=O)[C@H](C)[C@H]1O[C@@H]1O[C@H](C)C[C@H](N(C)C)[C@H]1O [Compound 40, (3S,6R,8R,9R,10R)-9-(((2S,3R,4S,6R)-4-(Dimethylamino)-3-hydroxy-6-methyltetrahydro-2H-pyran-2-yl)oxy)-8-methoxy-4,6,8,10,12,12-hexamethyl-3-((S)-pyrrolidin-3-yl)-1-oxa-4-azacyclotridecane-11,13-dione]
4 to 32 (≈ 6.69 to 53.5 µM)	< 4	< 4	> 32	> 32	CO[C@]1(C)C[C@@H](C)CN(C)[C@H](C2CCN(C)CC2)COC(=O)C(C)(C)C(=O)[C@H](C)[C@H]1O[C@@H]1O[C@H](C)C[C@H](N(C)C)[C@H]1O [Compound 43, (3R,6R,8R,9R,10R)-9-(((2S,3R,4S,6R)-4-(dimethylamino)-3-hydroxy-6-methyltetrahydro-2H-pyran-2-yl)oxy)-8-methoxy-4,6,8,10,12,12-hexamethyl-3-(1-methylpiperidin-4-yl)-1-oxa-4-azacyclotridecane-11,13-dione]
